According to US8580814B2, “Methods of using (+)-1,4-dihydro-7-[(3S,4S)-3-methoxy-4-(methylamino)-1-pyrrolidinyl]-4- oxo-1-(2-thiazolyl)-1,8-naphthyridine-3-carboxylic acid for treatment of cancer” (priority 2006, dated 2013):

Key:
HCT-116 cells = assay: Repair of DNA damage (gH2AX foci) in the absence of ATM and ATR; assay type: cell-based; settings: for 6 h with 2 mM caffeine, washout, 16 hours recovery
Method: Compound was then removed and cells were allowed to recover for 16 hours. Cells were analyzed for gH2AX foci before and after drug washout.

[1] = tested on: ATRFLOX (HCT-116 cells with 6 fold lower ATR levels); assay: Timing of apoptosis (caspase-3 activation); assay type: cell-based; settings: Cell Line ATRFLOX; dosed at 30 fold above the EC50 for cytotoxicity
[2] = tested on: advanced or refractory acute leukemias; assay: Peripheral blasts in patients with advanced or refractory acute leukemias; assay type: in vivo, human; settings: six patients distributed across all dosing groups of Table 15, following cycle 1
Method: (§1) SNS-595 was administered to patients with advanced or refractory acute leukemias as a slow IV push. Diagnoses included AML (19 patients) and ALL (2 patients). All patients had disease refractory to or relapsed from prior therapy (median 3 prior regimens (range 1-6)). A total of 21 patients (9 female and 12 male; median age=64 yrs, range 21-80) were treated in five cohorts using two schedules. In the first schedule (A), a weekly dose of SNS-595 was administered for three weeks followed by 7 days off (qwk×3). In the second schedule (B), a dose of SNS-595 was administered twice a week for two weeks (biwk×2). The cycle duration, including days off, was 28 days for both schedules. […] Additional cycles were permitted if patients achieved stable disease or better. The starting dose was 18 mg/m^2 on schedule A and 9 mg/m^2 on schedule B, and dosage was escalated by cohort. Cohorts of 3-6 patients were accrued to doses using a modified Fibonacci sequence.

[3] = design: species or system female CD-1 mice; settings: mouse, in vivo
Method: Female CD-1 mice were administered 5, 10, 15, or 20 mg/kg SNS-595 intravenously on Day 0 and Day 4. Blood was drawn on days 6, 8, and 12 post initial injection for hematological analysis. Femurs were extracted on day 6 fixed in Streck and H&E stained prior to bone marrow cellularity analysis. […] At 20 mg/kg, cellularity was reduced to 7.5%, while circulating neutrophils were reduced from a pre-dose level of […] to a nadir of 51±24 cells/mL blood on day 8.

clinical = settings: human, in vivo; for AUC(0-inf) / half-life: both sexes
Method: SNS-595 was administered to patients with advanced or refractory acute leukemias as a slow IV push. Diagnoses included AML (19 patients) and ALL (2 patients). All patients had disease refractory to or relapsed from prior therapy (median 3 prior regimens (range 1-6)).
as §1, with “A” for “SNS-595 was administered to patients with advanced or refractory acute leukemias as a slow IV push. Diagnoses included AML (19 patients) and ALL (2 patients). All patients had disease refractory to or relapsed from prior therapy (median 3 prior regimens (range 1-6)). A”
Pharmacokinetic analyses for SNS-595 were performed on plasma samples collected during cycle 1.
Plasma SNS-595 concentrations were determined using a validated LC-MS/MS assay. Plasma exposures at the first two dose levels for each schedule increased linearly, resulting in AUCs of 4.3-17.8 ughr/mL for 9-27 mg/m^2 doses. […] Six patients distributed across all dosing groups shown in Table 15 experienced greater than 50% reductions in peripheral blasts following cycle 1.

[4] = tested on: MO59J (DNAPKcs(−/−)) vs MO59K (DNAPKCs(+/+)); assay: MTT assay, sensitization (DNAPKcs(−/−)); assay type: cell-based
Method: Cells were then incubated with 5% MTT for 1-2 hours and lysed. MTT was colorimetrically read at 570 nm and EC50's were determined using linear regression analysis.
Sensitization was carried out with various chemical treatments.

[5] = Safety in patients with advanced or refractory acute leukemias; assay type: in vivo, human
Method: as §1

CN[C@H]1CN(c2ccc3c(=O)c(C(=O)O)cn(-c4nccs4)c3n2)C[C@@H]1OC [SNS-595, (+)-1,4-dihydro-7-[(3S,4S)-3-methoxy-4-(methylamino)-1-pyrrolidinyl]-4-oxo-1-(2-thiazolyl)-1,8-naphthyridine-3-carboxylic acid]
repair of induced DNA damage (gH2AX foci) in the absence of ATM and ATR (HCT-116 cells): readily repaired
Timing of apoptosis: fraction of cell cycle to achieve 50% maximal caspase-3 activation [1]: 0.35
reductions in peripheral blasts [2]: greater than 50%
peripheral neutrophils [3]: significant decrease
platelet response [3]: minor platelet response
Total WBCs ([3]; iv): reached a nadir on day 8, but returned to normal levels
AUC(0-inf) (clinical; 9 mg/m2): 4.3 ± 1.3 µg·h/mL
AUC(0-inf) (clinical; 13.5 mg/m2): 5.9 ± 2.9 µg·h/mL
half-life (clinical; 13.5 mg/m2): 21 ± 7 h
AUC(0-inf) (clinical; 18 mg/m2): 8 ± 1.4 µg·h/mL
AUC(0-inf) (clinical; 27 mg/m2): 17.8 ± 5 µg·h/mL
half-life (clinical; 27 mg/m2): 22 ± 10 h
terminal half-lives, averaged (clinical; both): 23 h
T ½ (clinical; both, 9 mg/m2): 24 ± 5 h
Vssobs (clinical; both, 9 mg/m2): 65 ± 2 L/m^2
Vssobs (clinical; both, 13.5 mg/m2): 61 ± 6 L/m^2
T ½ (clinical; both, 18 mg/m2): 24 ± 4 h
Vssobs (clinical; both, 18 mg/m2): 72 ± 21 L/m^2
Vssobs (clinical; both, 27 mg/m2): 47 ± 21 L/m^2
CL, averaged (clinical): ~2 L/hr/m^2
Vss, averaged (clinical): 58 L/m^2
sensitization, PIKK dependence ([4]; ATM/ATR or DNAPK activity inhibited or diminished): only when DNAPKcs activity is diminished
Sensitization, fold decrease in the EC50 for cytotoxicity (MTT): DNAPKcs(−/−) ([4]; MO59J (DNAPKcs(−/−)) vs MO59K (DNAPKCs(+/+)), compound 72 hours): 10 fold
Grade 4 neutropenic fever ([5]; acute leukemia patients): only one patient
Non-dose limiting toxicities ([5]; acute leukemia patients): nausea/vomiting, diarrhea, and mucositis
SAE possibly related to study drug: Infection, CTCAE v3.0 Grade ([5]; biwk x2, 1 patient): Grade 3
SAE possibly related to study drug: Neutropenic Fevers, CTCAE v3.0 Grade ([5]; biwk x2, 1 patient): Grade 4
SAE possibly related to study drug: Infection with Neutropenia, CTCAE v3.0 Grade ([5]; qwk x3, 1 patient): Grade 3
SAE possibly related to study drug: Pneumonia with Neutropenia, CTCAE v3.0 Grade ([5]; qwk x3, 1 patient): Grade 3
dose limiting toxicities (DLTs) ([5]; up to 13.5 mg/m^2 on the biwk×2 schedule): No dose limiting toxicities
dose limiting toxicities (DLTs) ([5]; up to 27 mg/m^2 on the qwk×3 schedule): No dose limiting toxicities
